Drawing on US6916798B2, “Inhibitors of GSK-3 and uses thereof” (Vertex Pharmaceuticals Incorporated, priority 2001, dated 2005), this text covers Ki for 64 molecules.

The target of this assay is T1, GSK-3β (AA 1-420) (Homo sapiens, UniProt P49841).
T1 construct: GSK-3β (AA 1-420)
The experiment in a line: Ki determination for the inhibition of GSK-3, standard coupled enzyme system. Format: biochemical. As to the method:
Final substrate concentrations in the assay were 20 μM ATP (Sigma Chemicals, St Louis, Mo.) and 300 μM peptide (HSSPHQS(PO3H2)EDEEE, American Peptide, Sunnyvale, Calif.). Reactions were carried out at 30° C. and 20 nM GSK-3β. Final concentrations of the components of the coupled enzyme system were 2.5 mM phosphoenolpyruvate, 300 μM NADH, 30 μg/ml pyruvate kinase and 10 μg/ml lactate dehydrogenase.
An assay stock buffer solution was prepared containing all of the reagents listed above with the exception of ATP and the test compound of interest. The assay stock buffer solution (175 μl) was incubated in a 96 well plate with 5 μl of the test compound of interest at final concentrations spanning 0.002 μM to 30 μM at 30 ° C. for 10 min. […] The reaction was initiated by the addition of 20 μl of ATP (final concentration 20 μM). Rates of reaction were obtained using a Molecular Devices Spectramax plate reader (Sunnyvale, Calif.) over 10 min at 30° C. The Ki values were determined from the rate data as a function of inhibitor concentration.

Where [1] appears, read: 20 μM ATP, 300 μM peptide, 20 nM GSK-3β, 30° C., read-out: Ki values for GSK-3.

Like-named read-outs stand apart in the source and are kept apart here.

T1 sequence (P49841 whole entry, the tested form may be a part): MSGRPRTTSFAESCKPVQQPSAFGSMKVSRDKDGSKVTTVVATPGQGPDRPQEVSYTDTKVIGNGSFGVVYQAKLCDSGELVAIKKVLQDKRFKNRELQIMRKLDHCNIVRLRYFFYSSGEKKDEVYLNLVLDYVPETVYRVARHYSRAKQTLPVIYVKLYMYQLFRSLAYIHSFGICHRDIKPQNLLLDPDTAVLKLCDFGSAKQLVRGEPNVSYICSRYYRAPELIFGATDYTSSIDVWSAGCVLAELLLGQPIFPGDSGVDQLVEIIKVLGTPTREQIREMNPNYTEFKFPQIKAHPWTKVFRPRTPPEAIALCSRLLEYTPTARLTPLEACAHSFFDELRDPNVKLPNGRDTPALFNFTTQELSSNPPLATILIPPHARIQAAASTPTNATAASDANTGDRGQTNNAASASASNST

As for `CC1=NNC(=O)/C1=N\Nc1ccccc1Cl` [Compound 8], the Ki under setting [1] lay in the range of 100 to 1000 nM.
Turning to `O=C1NN=C(c2ccccc2)/C1=N/Nc1ccccc1Cl` [Compound 12], the Ki under setting [1] was 100 to 1000 nM.
The same measure, in the same setting: the same measure for `O=C1NN=C(c2ccccn2)/C1=N/Nc1ccccc1Cl` [Compound 14]: 100 to 1000 nM.
Still for that read-out and setting: then `O=C1NN=C(c2cccnc2)/C1=N/Nc1ccccc1Cl` [Compound 15], with 100 to 1000 nM.
Take `O=C1NN=C(c2ccncc2)/C1=N/Nc1ccccc1Cl` [Compound 16]: the Ki under setting [1] fell in the range of 100 to 1000 nM.
Turning to `O=C1NN=C(c2ccccn2)C1=NNc1ccc(Cl)cc1` [Compound 17], under setting [1], the Ki is 100 to 1000 nM.
Still for that read-out and setting: the same measure for `O=C1NN=C(c2cccnc2)C1=NNc1ccc(Cl)cc1` [Compound 18]: less than 100 nM.
In turn, `COc1ccc(N/N=C2\C(=O)NN=C2c2cccnc2)cc1` [Compound 20] came in with an inhibition constant Ki of less than 100 nM.
Consider `COc1ccc(N/N=C2\C(=O)NN=C2c2ccncc2)cc1` [Compound 21], for which the Ki under setting [1] was less than 100 nM.
The same measure, in the same setting: the same measure for `O=C1NN=C(c2ccncc2)C1=NNc1ccc(Cl)cc1` [Compound 24]: less than 100 nM; for `O=C1NN=C(c2ccccc2)/C1=N/Nc1ccc(Cl)cc1` [Compound 25]: less than 100 nM; for `COc1ccc(N/N=C2\C(=O)NN=C2c2ccccn2)cc1` [Compound 26]: 100 to 1000 nM.
Regarding `O=C1NN=C(c2ccccc2F)C1=NNc1ccc(Cl)cc1` [Compound 27], the Ki under setting [1] lay in the range of 100 to 1000 nM.
Regarding `COc1ccc(NN=C2C(=O)NN=C2c2ccccc2F)cc1` [Compound 33], the Ki under setting [1] was 100 to 1000 nM.
With `CCN(CC)c1ccc(N/N=C2\C(=O)NN=C2c2ccc(OC)cc2)cc1` [Compound 36], the inhibition constant Ki under setting [1] is less than 100 nM.
Consider `CCN(CC)c1ccc(NN=C2C(=O)NN=C2c2cc(OC)c(OC)c(OC)c2)cc1` [Compound 38], for which, under setting [1], the Ki was 100 to 1000 nM.
Same read-out and setting: then `COc1cc(N2CCOCC2)ccc1NN=C1C(=O)NN=C1c1ccc(OC)c(OC)c1` [Compound 40], with 100 to 1000 nM; and `O=C1NN=C(c2ccc3c(c2)OCO3)C1=NNc1ccc(Cl)cc1` [Compound 45], with less than 100 nM; and `COc1ccc(NN=C2C(=O)NN=C2c2ccc3c(c2)OCO3)cc1` [Compound 48], with less than 100 nM.
As to `COc1cccc(C2=NNC(=O)/C2=N\Nc2ccc(Cl)cc2)c1` [Compound 49], under setting [1], the Ki was less than 100 nM.
Turning to `COc1ccc(N/N=C2\C(=O)NN=C2c2cccc(OC)c2)cc1` [Compound 50], under setting [1], the Ki was less than 100 nM.
The same measure, in the same setting: then `COc1ccc(C2=NNC(=O)/C2=N\Nc2ccc(N(C)C)cc2)cc1` [Compound 51], with less than 100 nM; and `COc1cccc(C2=NNC(=O)/C2=N\Nc2ccc(N(C)C)cc2)c1` [Compound 53], with less than 100 nM; and `COc1ccc(C2=NNC(=O)C2=NNc2ccc(Br)cc2)cc1` [Compound 54], with less than 100 nM.
Still for that read-out and setting: then `COc1ccc(C2=NNC(=O)C2=NNc2ccc(Br)cc2)cc1OC` [Compound 55], with less than 100 nM; and `COc1cccc(C2=NNC(=O)C2=NNc2ccc(Br)cc2)c1` [Compound 56], with less than 100 nM; and `COc1ccc(C2=NNC(=O)/C2=N\Nc2ccc(C#N)cc2)cc1` [Compound 57], with less than 100 nM.
For `COc1cccc(C2=NNC(=O)/C2=N\Nc2ccc(C#N)cc2)c1` [Compound 59], the Ki under setting [1] is less than 100 nM.
Still for that read-out and setting: the same measure for `COc1ccc(C2=NNC(=O)C2=NNc2ccc(C(F)(F)F)cc2)cc1` [Compound 63]: less than 100 nM; for `COc1ccc(C2=NNC(=O)C2=NNc2ccc(C(F)(F)F)cc2)cc1OC` [Compound 64]: less than 100 nM; for `COc1cccc(C2=NNC(=O)C2=NNc2ccc(C(F)(F)F)cc2)c1` [Compound 65]: less than 100 nM.
`COc1ccc(C2=NNC(=O)C2=NNc2cccc(C(F)(F)F)c2)cc1` [Compound 66]: the Ki under setting [1] was less than 100 nM.
For `COc1ccc(C2=NNC(=O)C2=NNc2cccc(C(F)(F)F)c2)cc1OC` [Compound 67], the inhibition constant Ki under setting [1] is less than 100 nM.
Regarding `COc1cccc(C2=NNC(=O)C2=NNc2cccc(C(F)(F)F)c2)c1` [Compound 68], under setting [1], the Ki was less than 100 nM.
Still for that read-out and setting: then `COc1ccc(C2=NNC(=O)/C2=N\Nc2cccc(Cl)c2)cc1` [Compound 69], with less than 100 nM.
The same measure, in the same setting: then `COc1cccc(C2=NNC(=O)/C2=N\Nc2cccc(Cl)c2)c1` [Compound 71], with less than 100 nM; and `COc1ccc(C2=NNC(=O)C2=NNc2cccc(OC)c2)cc1` [Compound 72], with less than 100 nM; and `COc1cccc(N/N=C2\C(=O)NN=C2c2cccc(OC)c2)c1` [Compound 74], with less than 100 nM.
On to `N#Cc1ccc(C2=NNC(=O)C2=NNc2ccc(Cl)cc2)cc1` [Compound 75], for which the inhibition constant Ki under setting [1] is less than 100 nM.
Still for that read-out and setting: then `COc1ccc(NN=C2C(=O)NN=C2c2ccc(C#N)cc2)cc1` [Compound 76], with 100 to 1000 nM; and `COc1ccc(C2=NNC(=O)C2=NNc2ccc([N+](=O)[O-])cc2)cc1` [Compound 77], with less than 100 nM.
The same measure, in the same setting: then `COc1cccc(C2=NNC(=O)C2=NNc2ccc([N+](=O)[O-])cc2)c1` [Compound 78], with less than 100 nM; and `COc1ccc(C2=NNC(=O)C2=NNc2ccc(-c3ccccc3)cc2)cc1OC` [Compound 80], with less than 100 nM; and `COc1ccc(C2=NNC(=O)C2=NNc2ccc(-c3ccc(F)cc3)cc2)cc1` [Compound 82], with less than 100 nM.
On the same count and under the same terms, then `COc1ccc(C2=NNC(=O)C2=NNc2ccc(-c3ccc(F)cc3)cc2)cc1OC` [Compound 83], with less than 100 nM.
As for `COc1cccc(C2=NNC(=O)C2=NNc2ccc(-c3ccc(F)cc3)cc2)c1` [Compound 84], the inhibition constant (Ki) under setting [1] lay in the range of 100 to 1000 nM.
In the case of `COc1ccc(C2=NNC(=O)C2=NNc2ccc(Oc3ccccc3)cc2)cc1` [Compound 85], under setting [1], the inhibition constant Ki was less than 100 nM.
On to `COc1cccc(C2=NNC(=O)C2=NNc2ccc(Oc3ccccc3)cc2)c1` [Compound 87], for which, under setting [1], the Ki was less than 100 nM.
Still for that read-out and setting: the same measure for `COc1ccc(C2=NNC(=O)C2=NNc2cccc(Oc3ccccc3)c2)cc1` [Compound 88]: less than 100 nM.
On the same count and under the same terms, then `COc1ccc(C2=NNC(=O)C2=NNc2cccc(Oc3ccccc3)c2)cc1OC` [Compound 89], with less than 100 nM.
Same read-out and setting: the same measure for `COc1cccc(C2=NNC(=O)C2=NNc2cccc(Oc3ccccc3)c2)c1` [Compound 90]: less than 100 nM.
As for `COc1ccc(C2=NNC(=O)C2=NNc2ccc(OC)c(-c3cccc(N)c3)c2)cc1OC` [Compound 105, 4-[(3′-Amino-6-methoxy-biphenyl-3-yl)-hydrazono]-5-(3,4-dimethoxy-phenyl)-2,4-dihydro-pyrazol-3-one], the Ki under setting [1] was less than 100 nM.
Take `COc1ccc(C2=NNC(=O)C2=NNc2ccc(OC)c(-c3cc(OC)c(OC)c(OC)c3)c2)cc1OC` [Compound 109, 5-(3,4-Dimethoxy-phenyl)-4-[(6,3′,4′,5′-tetramethoxy-biphenyl-3-yl)-hydrazono]-2,4-dihydro-pyrazol-3-one]: the Ki under setting [1] is less than 100 nM.
On the same count and under the same terms, the same measure for `CCOc1cc(N2CCOCC2)c(OCC)cc1NN=C1C(=O)NN=C1c1ccc(OC)c(OC)c1` [Compound 111, 4-[(2,5-Diethoxy-4-morpholin-4-yl-phenyl)-hydrazono]-5-(3,4-dimethoxy-phenyl)-2,4-dihydro-pyrazol-3-one]: 100 to 1000 nM.
For the molecule `COc1cc(OC)c(NN=C2C(=O)NN=C2c2ccc(OC)c(OC)c2)c(OC)c1` [Compound 112, 5-(3,4-Dimethoxy-phenyl)-4-[(2,4,6-trimethoxy-phenyl)-hydrazono]-2,4-dihydro-pyrazol-3-one], the Ki under setting [1] fell in the range of 100 to 1000 nM.
Take `COc1cc(C2=NNC(=O)C2=NNc2ccc(N3CCOCC3)cc2OC)ccc1O` [Compound 113, 5-(4-Hydroxy-3-methoxy-phenyl)-4-[(2-methoxy-4-morpholin-4-yl-phenyl)-hydrazono]-2,4-dihydro-pyrazol-3-one]: under setting [1], the Ki lay within 100 to 1000 nM.
Still for that read-out and setting: the same measure for `COc1ccc(C2=NNC(=O)C2=NNc2ccc(OC)c(N3CCOCC3)c2)cc1OC` [Compound 123, 5-(3,4-Dimethoxy-phenyl)-4-[(4-methoxy-3-morpholin-4-yl-phenyl)-hydrazono]-2,4-dihydro-pyrazol-3-one]: less than 100 nM.
As to `COc1ccc(NN=C2C(=O)NN=C2c2cc(OC)c(OC)c(OC)c2)cc1N1CCOCC1` [Compound 124, 4-[(4-Methoxy-3-morpholin-4-yl-phenyl)-hydrazono]-5-(3,4,5-trimethoxy-phenyl)-2,4-dihydro-pyrazol-3-one], the Ki under setting [1] was less than 100 nM.
On the same count and under the same terms, then `COc1ccc(C2=NNC(=O)C2=NNc2ccc(OC)c(N3CCN(C)CC3)c2)cc1OC` [Compound 125, 5-(3,4-Dimethoxy-phenyl)-4-{[4-methoxy-3-(4-methyl-piperazin-1-yl)-phenyl]-hydrazono}-2,4-dihydro-pyrazol-3-one], with less than 100 nM; and `COc1cc(C2=NNC(=O)C2=NNc2ccc(OC)c(N3CCN(C)CC3)c2)ccc1OCc1ccccc1` [Compound 126, 5-(4-Benzyloxy-3-methoxy-phenyl)-4-{[4-methoxy-3-(4-methyl-piperazin-1-yl)-phenyl]-hydrazono}-2,4-dihydro-pyrazol-3-one], with less than 100 nM.
As to `COc1ccc(C2=NNC(=O)C2=NNc2cccc(-c3ccccc3)c2)cc1` [Compound 203], the Ki under setting [1] was less than 100 nM.
On to `COc1ccc(C2=NNC(=O)C2=NNc2cccc(-c3ccccc3)c2)cc1OC` [Compound 204], for which the inhibitory constant (Ki) under setting [1] is less than 100 nM.
Take `O=C1NN=C(c2ccc(N3CCOCC3)cc2)C1=NNc1cccc(-c2ccccc2)c1` [Compound 205]: the Ki under setting [1] is less than 100 nM.
Consider `COc1ccc(C2=NNC(=O)C2=NNc2ccc3c(c2)C(=O)c2ccccc2-3)cc1` [Compound 206], for which the Ki under setting [1] is less than 100 nM.

Usually Ki stands for the dissociation constant of the complex between target and ligand, obtained from inhibition or displacement.
